Article PMC4114247 (Cancer research, 2009)
“Also recorded” adds a separate entry of the source.

Experiments:
[1] = target: NAALADase activity of PSMA (Homo sapiens, UniProt Q04609); assay: NAALADase inhibition in LNCaP cell lysates; type: biochemical
[2] = target: PSMA on human prostate cancer LNCaP cells (Homo sapiens, UniProt Q04609); assay: Saturation binding analysis on LNCaP cells
LNCaP cells = assay: Internalization into LNCaP cells; type: cell-based, human; settings: 100 nM, 0–2 hours
PC3 PIP (PSMA +) tumors = settings: mouse, in vivo
[3] = Stability in blood plasma; type: in vitro ADME; settings: data not shown
[4] = test system: mice bearing LNCaP xenografts; assay: SPECT/CT imaging, LNCaP xenografts; type: in vivo, mouse; settings: 4 hr after injection
[5] = target: LNCaP cells (PSMA positive) (Homo sapiens, UniProt Q04609); assay: Direct binding to LNCaP cells
Sequence of LNCaP cells (PSMA positive) (Q04609 whole entry): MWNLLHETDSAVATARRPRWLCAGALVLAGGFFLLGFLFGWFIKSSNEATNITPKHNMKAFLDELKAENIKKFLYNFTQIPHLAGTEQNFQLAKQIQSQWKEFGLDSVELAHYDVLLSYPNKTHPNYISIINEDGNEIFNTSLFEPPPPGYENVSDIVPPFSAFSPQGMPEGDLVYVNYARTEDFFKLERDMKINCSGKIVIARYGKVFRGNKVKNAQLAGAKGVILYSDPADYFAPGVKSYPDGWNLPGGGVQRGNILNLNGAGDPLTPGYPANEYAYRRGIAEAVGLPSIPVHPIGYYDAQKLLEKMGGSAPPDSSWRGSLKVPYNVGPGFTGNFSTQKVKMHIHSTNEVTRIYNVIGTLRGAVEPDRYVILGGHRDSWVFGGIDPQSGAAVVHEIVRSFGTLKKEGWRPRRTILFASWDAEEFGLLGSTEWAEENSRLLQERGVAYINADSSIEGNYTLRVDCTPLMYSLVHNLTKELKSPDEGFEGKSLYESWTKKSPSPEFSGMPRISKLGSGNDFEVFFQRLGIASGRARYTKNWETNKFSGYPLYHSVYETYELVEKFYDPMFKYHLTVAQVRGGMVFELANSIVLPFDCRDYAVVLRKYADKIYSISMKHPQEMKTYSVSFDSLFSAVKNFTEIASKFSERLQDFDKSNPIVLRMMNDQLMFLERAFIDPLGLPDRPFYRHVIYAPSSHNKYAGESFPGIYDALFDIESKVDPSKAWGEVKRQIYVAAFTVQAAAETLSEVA

[6] = test system: NCr nude mice bearing LNCaP xenografts; assay: Mouse tissue distribution, LNCaP xenografts; type: in vivo; settings: for Ratio Tumor:Blood / Ratio Tumor:Skeletal Muscle: ratio based on the %ID/g
[7] = test system: PC3 cells (PSMA negative); assay: Direct binding to PC3 cells; settings: 3 nM radioligand, 1 hour; PC3 cells lack PSMA
[8] = Stability in liver microsomes; type: in vitro ADME; settings: data not shown
[9] = test system: NCr-nu/nu mice bearing PC3 xenografts; assay: Mouse tissue distribution, PC3 xenografts; type: in vivo; settings: PSMA deficient PC3 xenografts
[10] = co-injected with 50 mg/kg PMPA, 2 hours

Sequence of PSMA on human prostate cancer LNCaP cells (Q04609 whole entry): as above
Sequence of NAALADase activity of PSMA (Q04609 whole entry): as above

## O=C(O)CC[C@H](NC(=O)N[C@@H](CCCCNCc1ccc(I)cc1)C(=O)O)C(=O)O [MIP-1072, (S)-2-(3-((S)-1-carboxy-5-(4–iodobenzylamino)pentyl)ureido)pentanedioic acid]
[1]
  Ki: 4.6 ± 1.6 nM
[2]
  Kd: 3.8 ± 1.3 nM

## O=C(O)CC[C@H](NC(=O)N[C@@H](CCCCNC(=O)Nc1ccc(I)cc1)C(=O)O)C(=O)O [MIP-1095, (S)-2-(3-((S)-1-carboxy-5-(3-(4-iodophenyl)ureido)pentyl)ureido)pentanedioic acid]
[2]
  Kd: 0.81 ± 0.39 nM
[2]; saturation binding and NAALADase inhibition studies
  Greater affinity of MIP-1095 over MIP-1072: approximately 5 fold

## O=C(O)CC[C@H](NC(=O)N[C@@H](CCCCNCc1ccc(I)cc1)C(=O)O)C(=O)O [[^123I]MIP-1072, (S)-2-(3-((S)-1-carboxy-5-(4–iodobenzylamino)pentyl)ureido)pentanedioic acid]
LNCaP cells; 4 °C
  Internalization into LNCaP cells: but not at 4 °C
LNCaP cells; 37 °C
  Internalization into LNCaP cells: internalized; also recorded: time dependent increase in radioactivity associated with the cellular pellet
PC3 PIP (PSMA +) tumors
  SPECT/CT detection of PC3 PIP (PSMA +) tumors: detected
[3]
  Stability in blood plasma: stable
[4]
  SPECT/CT uptake in kidney and LNCaP tumor: high uptake
[5]; 3 nM radioligand with 10 µM non-radiolabeled compound or 10 µM PMPA
  Binding to LNCaP cells in the presence of non-radiolabeled compound or PMPA: abolished; also recorded: inhibited
[5]; 3 nM radioligand, 1 hour, room temperature
  Binding to LNCaP cells: bound
[6]; 0.25 hr after injection
  Tissue distribution: Adipose: 1.45 ± 0.27 %ID/g
  Tissue distribution: Blood: 2.59 ± 0.24 %ID/g
  Tissue distribution: Bone: 0.69 ± 0.15 %ID/g
  Tissue distribution: Brain: 0.08 ± 0.02 %ID/g
  Tissue distribution: Heart: 1.25 ± 0.22 %ID/g
  Tissue distribution: Kidneys: 90.1 ± 20.2 %ID/g
  Tissue distribution: Lg Intestine: 0.41 ± 0.08 %ID/g
  Tissue distribution: Liver: 2.26 ± 0.56 %ID/g
  Tissue distribution: Lungs: 2.34 ± 0.61 %ID/g
  Tissue distribution: Sk.Muscle: 0.8 ± 0.18 %ID/g
  Tissue distribution: Sm Intestine: 0.83 ± 0.1 %ID/g
  Tissue distribution: Spleen: 4.28 ± 1.67 %ID/g
  Tissue distribution: Stomach: 0.69 ± 0.17 %ID/g
  Tissue distribution: Testes: 0.91 ± 0.24 %ID/g
  Tissue distribution: Tumor (LNCaP xenograft): 12.9 ± 3.3 %ID/g
[6]; 0.25 hr
  Ratio Tumor:Blood: 4.97
  Ratio Tumor:Skeletal Muscle: 16.2
[6]; 1 hr after injection
  Tissue distribution: Adipose: 0.74 ± 0.28 %ID/g
  Tissue distribution: Blood: 0.47 ± 0.15 %ID/g
  Tissue distribution: Bone: 0.25 ± 0.07 %ID/g
  Tissue distribution: Brain: 0.04 ± 0.01 %ID/g
  Tissue distribution: Heart: 0.31 ± 0.08 %ID/g
  Tissue distribution: Kidneys: 151 ± 26 %ID/g
  Tissue distribution: Lg Intestine: 0.15 ± 0.04 %ID/g
  Tissue distribution: Liver: 2.22 ± 0.43 %ID/g
  Tissue distribution: Lungs: 0.86 ± 0.24 %ID/g
  Tissue distribution: Sk.Muscle: 0.35 ± 0.17 %ID/g
  Tissue distribution: Sm Intestine: 0.41 ± 0.12 %ID/g
  Tissue distribution: Spleen: 1.91 ± 0.85 %ID/g
  Tissue distribution: Stomach: 0.26 ± 0.03 %ID/g
  Tissue distribution: Testes: 0.58 ± 0.19 %ID/g
  Tissue distribution: Tumor (LNCaP xenograft): 17.4 ± 6.3 %ID/g
[6]; 1 hr
  Ratio Tumor:Blood: 37.1
  Ratio Tumor:Skeletal Muscle: 50.0
[6]; 2 hr after injection
  Tissue distribution: Adipose: 0.46 ± 0.27 %ID/g
  Tissue distribution: Blood: 0.21 ± 0.04 %ID/g
  Tissue distribution: Bone: 0.17 ± 0.08 %ID/g
  Tissue distribution: Brain: 0.04 ± 0.01 %ID/g
  Tissue distribution: Heart: 0.19 ± 0.07 %ID/g
  Tissue distribution: Kidneys: 159 ± 46 %ID/g
  Tissue distribution: Lg Intestine: 0.28 ± 0.12 %ID/g
  Tissue distribution: Liver: 2.84 ± 0.63 %ID/g
  Tissue distribution: Lungs: 0.4 ± 0.19 %ID/g
  Tissue distribution: Sk.Muscle: 0.2 ± 0.1 %ID/g
  Tissue distribution: Sm Intestine: 0.35 ± 0.1 %ID/g
  Tissue distribution: Spleen: 0.75 ± 0.36 %ID/g
  Tissue distribution: Stomach: 0.21 ± 0.06 %ID/g
  Tissue distribution: Testes: 0.43 ± 0.16 %ID/g
  Tissue distribution: Tumor (LNCaP xenograft): 14.0 ± 6.9 %ID/g
[6]; 2 hr
  Ratio Tumor:Blood: 65.4
  Ratio Tumor:Skeletal Muscle: 70.2
[6]; 4 hr after injection
  Tissue distribution: Adipose: 0.12 ± 0.16 %ID/g
  Tissue distribution: Bone: 0.1 ± 0.18 %ID/g
  Tissue distribution: Heart: 0.01 ± 0.02 %ID/g
  Tissue distribution: Kidneys: 35.8 ± 18.7 %ID/g
  Tissue distribution: Lg Intestine: 0.48 ± 0.13 %ID/g
  Tissue distribution: Liver: 2.17 ± 0.67 %ID/g
  Tissue distribution: Lungs: 0.08 ± 0.04 %ID/g
  Tissue distribution: Sk.Muscle: 0.08 ± 0.1 %ID/g
  Tissue distribution: Sm Intestine: 0.24 ± 0.07 %ID/g
  Tissue distribution: Spleen: 0.16 ± 0.12 %ID/g
  Tissue distribution: Stomach: 0.11 ± 0.05 %ID/g
  Tissue distribution: Testes: 0.26 ± 0.17 %ID/g
  Tissue distribution: Tumor (LNCaP xenograft): 13.7 ± 3.1 %ID/g
[6]; 4 hr
  Ratio Tumor:Blood: 220
  Ratio Tumor:Skeletal Muscle: 182
[6]; 8 hr after injection
  Tissue distribution: Adipose: 0.04 ± 0.11 %ID/g
  Tissue distribution: Blood: 0.06 ± 0.03 %ID/g
  Tissue distribution: Bone: 0.04 ± 0.04 %ID/g
  Tissue distribution: Brain: 0.02 ± 0.01 %ID/g
  Tissue distribution: Heart: 0.05 ± 0.04 %ID/g
  Tissue distribution: Kidneys: 21.5 ± 25.5 %ID/g
  Tissue distribution: Lg Intestine: 0.72 ± 0.22 %ID/g
  Tissue distribution: Liver: 1.78 ± 0.4 %ID/g
  Tissue distribution: Lungs: 0.06 ± 0.03 %ID/g
  Tissue distribution: Sk.Muscle: 0.02 ± 0.04 %ID/g
  Tissue distribution: Sm Intestine: 0.27 ± 0.06 %ID/g
  Tissue distribution: Spleen: 0.18 ± 0.11 %ID/g
  Tissue distribution: Stomach: 0.21 ± 0.08 %ID/g
  Tissue distribution: Testes: 0.18 ± 0.14 %ID/g
  Tissue distribution: Tumor (LNCaP xenograft): 9.74 ± 3.48 %ID/g
[6]; 8 hr
  Ratio Tumor:Blood: 176
  Ratio Tumor:Skeletal Muscle: 446
[6]; 24 hr after injection
  Tissue distribution: Adipose: 0.01 ± 0.11 %ID/g
  Tissue distribution: Blood: 0.01 ± 0 %ID/g
  Tissue distribution: Bone: 0.03 ± 0.05 %ID/g
  Tissue distribution: Brain: 0.02 ± 0.01 %ID/g
  Tissue distribution: Heart: 0.01 ± 0.05 %ID/g
  Tissue distribution: Kidneys: 1.1 ± 0.6 %ID/g
  Tissue distribution: Lg Intestine: 0.37 ± 0.18 %ID/g
  Tissue distribution: Liver: 0.29 ± 0.05 %ID/g
  Tissue distribution: Lungs: 0.05 ± 0.06 %ID/g
  Tissue distribution: Sk.Muscle: 0.08 ± 0.04 %ID/g
  Tissue distribution: Sm Intestine: 0.07 ± 0.02 %ID/g
  Tissue distribution: Spleen: 0.14 ± 0.1 %ID/g
  Tissue distribution: Stomach: 0.11 ± 0.05 %ID/g
  Tissue distribution: Testes: 0.05 ± 0.04 %ID/g
  Tissue distribution: Tumor (LNCaP xenograft): 5.03 ± 1.35 %ID/g
[6]; 24 hr
  Ratio Tumor:Blood: 411
  Ratio Tumor:Skeletal Muscle: 64.5
[6]; after only a few hours
  tumor:blood ratio: > 100
  tumor:skeletal muscle ratio: > 100
[6]; all time points
  Thyroid content (deiodination): < 1 % of the total injected dose
[6]; [10]
  Binding to LNCaP tumor xenografts with co-injected PMPA: blocked
  Binding to kidneys with co-injected PMPA: blocked
[6]; from little uptake in the brain
  Blood-brain barrier crossing: do not cross the blood-brain barrier
[6]; mouse, in vivo
  Route of clearance: primarily through urinary excretion
[7]
  Binding to PC3 cells: no binding; also recorded: not to the PSMA deficient PC3 cells
[8]
  Stability in liver microsomes: stable
[9]
  Localization to PC3 tumors: not to the PSMA deficient PC3 tumors
